Measured values from ChEMBL document CHEMBL3797106, “Potent and Selective Agonists of Sphingosine 1-Phosphate 1 (S1P1): Discovery and SAR of a Novel Isoxazole Based Series” (J Med Chem, 2016).
Activity calls are given as the source filed them. The rule behind the calls is not given here.

How the values were obtained:
[1] = Oral bioavailability in cynomolgus monkey at 5 mg/kg; type: ADME, organism-based, Macaca fascicularis; conditions: in vivo
[2] = system: Cynomolgus monkey; assay: Ratio of Cmax to Cmin in cynomolgus monkey at 5 mg/kg, po; type: ADME, organism-based, Macaca fascicularis; conditions: in vivo
[3] = Tmax in dog at 1 mg/kg, po; type: ADME, organism-based, Canis lupus familiaris; conditions: in vivo
[4] = AUC in dog at 1 mg/kg, po; type: ADME, organism-based, Canis lupus familiaris; conditions: in vivo
[5] = Mean residence time in dog at 1 mg/kg, iv; type: ADME, organism-based, Canis lupus familiaris; conditions: in vivo
[6] = system: Rattus norvegicus; assay: Antiarthritic activity in complete Freund's adjuvant-induced Lewis rat arthritis model assessed as suppression of paw swelling at 0.03 mg/kg, po qd for 21 days started from day of immunization measured 3 times per week of compound dosing by water displacement plethysmometry; type: functional, organism-based
[7] = system: Mus musculus; assay: Inhibition of inflammation in spinal cord of po dosed C57BL/6 mouse experimental autoimmune encephalomyelitis model of multiple sclerosis administered as qd for 24 days started from day of immunization; type: functional, organism-based
[8] = system: Mus musculus; assay: Inhibition of demyelination in spinal cord of po dosed C57BL/6 mouse experimental autoimmune encephalomyelitis model of multiple sclerosis administered as qd for 24 days started from day of immunization; type: functional, organism-based
[9] = system: Mus musculus; assay: Reduction in clinical score in po dosed C57BL/6 mouse experimental autoimmune encephalomyelitis model of multiple sclerosis administered as qd for 24 days started from day of immunization measured 3 times per week of compound dosing; type: functional; conditions: C57BL/6, po, 576 h
[10] = molecular target: T1, Sphingosine 1-phosphate receptor 1 (Homo sapiens, UniProt P21453); assay: Agonist activity at human S1P1 receptor expressed in CHO cell membranes after 45 mins by [35S]-GTPgammaS binding assay; type: functional
[11] = molecular target: Sphingosine 1-phosphate receptor 3 (Homo sapiens, UniProt Q99500); assay: Agonist activity at human S1P3 receptor expressed in EDG3-Ga15-bla HEK293T cell membranes after 45 mins by [35S]-GTPgammaS binding assay; type: functional, HEK-293T
[12] = system: Rattus norvegicus; assay: Reduction of blood lymphocyte level in Lewis rat at 1 mg/kg, po measured at 4 hrs by hematology analyzer relative to vehicle-treated control; type: functional; parameters: scale not given: the % may be the effect or the level left
[13] = Plasma concentration in Lewis rat at 1 mg/kg, po measured at 24 hrs; type: ADME, organism-based
[14] = molecular target: T1, Sphingosine 1-phosphate receptor 1; assay: Induction of internalization of C-terminal GFP-fused human S1P1 receptor expressed in CHO […] after 50 mins; type: cell-based
[15] = molecular target: T1, Sphingosine 1-phosphate receptor 1; assay: Induction of internalization of C-terminal GFP-fused human S1P1 receptor expressed in CHO […] assessed as remaining receptor level in cell membrane at 4.6 nM preincubated for 50 mins followed by compound washout measured at 4 hrs relative to control; type: cell-based
[16] = molecular target: T1, Sphingosine 1-phosphate receptor 1; assay: Induction of internalization of C-terminal GFP-fused human S1P1 receptor expressed in CHO […] assessed as remaining receptor level in cell membrane at 4.6 nM preincubated for 50 mins followed by compound washout measured at 16 hrs relative to control; type: cell-based
[17] = Plasma protein binding in mouse; type: ADME, cell-free; conditions: read-out: PPB
[18] = Plasma protein binding in monkey; type: ADME, cell-free, Macaca mulatta; conditions: rhesus monkey, read-out: PPB (converted)
[19] = Permeability across apical to basolateral side in human Caco2 cells; type: ADME, cell-based; conditions: Caco-2, read-out: permeability
[20] = molecular target: T2, Cytochrome P450 1A2 (Homo sapiens, UniProt P05177); assay: Inhibition of CYP1A2 (unknown origin); type: ADME
T2 sequence (P05177 whole entry): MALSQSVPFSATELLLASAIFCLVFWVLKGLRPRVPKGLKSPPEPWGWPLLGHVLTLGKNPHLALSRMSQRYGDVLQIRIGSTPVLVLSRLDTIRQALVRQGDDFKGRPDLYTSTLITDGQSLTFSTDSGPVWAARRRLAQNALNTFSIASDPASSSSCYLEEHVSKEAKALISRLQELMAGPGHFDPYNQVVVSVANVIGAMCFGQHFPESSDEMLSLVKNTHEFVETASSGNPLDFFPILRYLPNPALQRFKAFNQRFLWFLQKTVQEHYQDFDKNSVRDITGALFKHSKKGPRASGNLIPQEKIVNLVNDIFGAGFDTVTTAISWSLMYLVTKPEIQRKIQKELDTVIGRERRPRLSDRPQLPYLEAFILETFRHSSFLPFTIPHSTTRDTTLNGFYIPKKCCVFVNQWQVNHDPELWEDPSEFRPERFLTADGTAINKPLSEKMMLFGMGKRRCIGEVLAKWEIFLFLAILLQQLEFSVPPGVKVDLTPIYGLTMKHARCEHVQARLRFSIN

[21] = molecular target: T3, Cytochrome P450 2C8 (Homo sapiens, UniProt P10632); assay: Inhibition of CYP2C8 (unknown origin); type: ADME
T3 sequence (P10632 whole entry): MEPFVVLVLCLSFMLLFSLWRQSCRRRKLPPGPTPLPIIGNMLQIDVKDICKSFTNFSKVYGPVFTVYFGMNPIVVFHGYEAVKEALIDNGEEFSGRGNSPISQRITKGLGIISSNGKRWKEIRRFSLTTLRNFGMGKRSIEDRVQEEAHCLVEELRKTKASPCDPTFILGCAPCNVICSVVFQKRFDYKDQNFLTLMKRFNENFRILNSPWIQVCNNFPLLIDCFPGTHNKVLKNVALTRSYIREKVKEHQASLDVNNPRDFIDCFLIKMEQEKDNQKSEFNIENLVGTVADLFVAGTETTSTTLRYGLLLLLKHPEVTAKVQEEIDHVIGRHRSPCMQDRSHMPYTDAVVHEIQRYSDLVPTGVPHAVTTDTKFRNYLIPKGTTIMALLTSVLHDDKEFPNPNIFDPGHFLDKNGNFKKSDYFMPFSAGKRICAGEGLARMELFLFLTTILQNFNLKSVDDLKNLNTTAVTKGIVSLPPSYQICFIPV

[22] = molecular target: Cytochrome P450 2C9 (Homo sapiens, UniProt P11712); assay: Inhibition of CYP2C9 (unknown origin); type: ADME
[23] = molecular target: Cytochrome P450 2D6 (Homo sapiens, UniProt P10635); assay: Inhibition of CYP2D6 (unknown origin); type: ADME
[24] = molecular target: Cytochrome P450 3A4 (Homo sapiens, UniProt P08684); assay: Inhibition of CYP3A4 (unknown origin); type: ADME
[25] = Plasma concentration in Lewis rat at 0.3 mg/kg, po measured at 4 hrs; type: ADME, organism-based
[26] = system: Rattus norvegicus; assay: Reduction of blood lymphocyte level in Lewis rat at 0.3 mg/kg, po measured at 24 hrs by hematology analyzer relative to vehicle-treated control; type: functional; parameters: scale not given: the % may be the effect or the level left
[27] = system: Rattus norvegicus; assay: Reduction of blood lymphocyte level in Lewis rat at 0.03 mg/kg, po measured at 4 hrs by hematology analyzer relative to vehicle-treated control; type: functional; parameters: scale not given: the % may be the effect or the level left
[28] = Plasma concentration in Lewis rat at 0.03 mg/kg, po measured at 24 hrs; type: ADME, organism-based
[29] = Half life in mouse at 2 mg/kg, iv; type: ADME, organism-based; conditions: in vivo
[30] = Mean residence time in mouse at 2 mg/kg, iv; type: ADME, organism-based; conditions: in vivo
[31] = system: Mus musculus; assay: Clearance in mouse at 2 mg/kg, iv relative to hepatic blood flow; type: ADME, organism-based; conditions: in vivo
[32] = Tmax in rat at 5 mg/kg, po; type: ADME, organism-based; conditions: in vivo
[33] = Mean residence time in rat at 2 mg/kg, iv; type: ADME, organism-based; conditions: in vivo
[34] = system: Rattus norvegicus; assay: Ratio of Cmax to Cmin in rat at 5 mg/kg, po; type: ADME, organism-based; conditions: in vivo

T1 sequence (P21453 whole entry): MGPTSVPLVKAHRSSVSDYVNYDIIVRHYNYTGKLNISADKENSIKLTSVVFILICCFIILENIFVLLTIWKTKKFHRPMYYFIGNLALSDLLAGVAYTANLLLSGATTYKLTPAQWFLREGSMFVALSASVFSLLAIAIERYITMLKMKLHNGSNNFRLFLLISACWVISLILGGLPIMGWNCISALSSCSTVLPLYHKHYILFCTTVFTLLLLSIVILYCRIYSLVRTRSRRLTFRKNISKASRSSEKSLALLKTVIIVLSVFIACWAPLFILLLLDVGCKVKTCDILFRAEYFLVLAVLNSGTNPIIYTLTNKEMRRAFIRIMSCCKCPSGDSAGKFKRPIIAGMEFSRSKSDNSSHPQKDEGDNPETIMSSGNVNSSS
Chain of Cytochrome P450 3A4 (P08684 whole entry): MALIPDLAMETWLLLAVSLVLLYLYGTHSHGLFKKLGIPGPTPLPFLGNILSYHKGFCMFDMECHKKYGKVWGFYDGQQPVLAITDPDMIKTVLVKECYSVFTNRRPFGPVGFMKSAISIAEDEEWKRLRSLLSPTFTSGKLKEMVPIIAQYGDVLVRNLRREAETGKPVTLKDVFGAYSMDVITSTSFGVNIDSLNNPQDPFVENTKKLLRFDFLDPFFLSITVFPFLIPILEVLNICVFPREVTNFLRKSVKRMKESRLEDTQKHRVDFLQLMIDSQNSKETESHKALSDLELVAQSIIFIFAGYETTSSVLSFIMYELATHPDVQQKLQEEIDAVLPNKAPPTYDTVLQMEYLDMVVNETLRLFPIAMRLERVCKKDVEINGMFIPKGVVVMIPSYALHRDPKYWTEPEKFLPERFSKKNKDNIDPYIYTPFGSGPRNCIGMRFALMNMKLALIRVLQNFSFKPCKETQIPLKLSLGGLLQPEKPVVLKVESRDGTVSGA
Chain of Cytochrome P450 2C9 (P11712 whole entry): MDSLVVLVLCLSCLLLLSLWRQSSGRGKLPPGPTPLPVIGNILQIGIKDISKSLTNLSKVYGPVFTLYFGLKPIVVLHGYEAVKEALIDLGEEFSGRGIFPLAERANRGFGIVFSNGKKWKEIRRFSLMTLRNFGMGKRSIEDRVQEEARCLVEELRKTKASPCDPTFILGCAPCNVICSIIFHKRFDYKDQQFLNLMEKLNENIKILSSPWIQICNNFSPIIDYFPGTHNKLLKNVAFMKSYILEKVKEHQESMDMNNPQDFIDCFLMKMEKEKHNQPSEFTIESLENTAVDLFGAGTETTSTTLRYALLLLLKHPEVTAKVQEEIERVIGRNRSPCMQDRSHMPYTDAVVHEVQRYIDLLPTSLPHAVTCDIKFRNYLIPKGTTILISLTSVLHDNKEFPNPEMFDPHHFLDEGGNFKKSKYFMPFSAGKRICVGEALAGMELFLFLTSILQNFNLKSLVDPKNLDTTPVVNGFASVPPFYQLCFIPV
Chain of Sphingosine 1-phosphate receptor 3 (Q99500 whole entry): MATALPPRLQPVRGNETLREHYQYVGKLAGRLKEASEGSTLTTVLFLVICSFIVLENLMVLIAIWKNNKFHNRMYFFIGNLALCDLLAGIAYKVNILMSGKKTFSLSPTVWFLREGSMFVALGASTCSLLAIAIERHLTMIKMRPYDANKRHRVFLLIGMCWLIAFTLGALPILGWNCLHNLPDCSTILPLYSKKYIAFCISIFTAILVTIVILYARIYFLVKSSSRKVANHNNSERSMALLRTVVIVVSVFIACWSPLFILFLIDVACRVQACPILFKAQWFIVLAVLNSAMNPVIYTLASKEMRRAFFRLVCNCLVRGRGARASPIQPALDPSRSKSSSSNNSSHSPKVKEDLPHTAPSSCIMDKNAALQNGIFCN
Chain of Cytochrome P450 2D6 (P10635 whole entry): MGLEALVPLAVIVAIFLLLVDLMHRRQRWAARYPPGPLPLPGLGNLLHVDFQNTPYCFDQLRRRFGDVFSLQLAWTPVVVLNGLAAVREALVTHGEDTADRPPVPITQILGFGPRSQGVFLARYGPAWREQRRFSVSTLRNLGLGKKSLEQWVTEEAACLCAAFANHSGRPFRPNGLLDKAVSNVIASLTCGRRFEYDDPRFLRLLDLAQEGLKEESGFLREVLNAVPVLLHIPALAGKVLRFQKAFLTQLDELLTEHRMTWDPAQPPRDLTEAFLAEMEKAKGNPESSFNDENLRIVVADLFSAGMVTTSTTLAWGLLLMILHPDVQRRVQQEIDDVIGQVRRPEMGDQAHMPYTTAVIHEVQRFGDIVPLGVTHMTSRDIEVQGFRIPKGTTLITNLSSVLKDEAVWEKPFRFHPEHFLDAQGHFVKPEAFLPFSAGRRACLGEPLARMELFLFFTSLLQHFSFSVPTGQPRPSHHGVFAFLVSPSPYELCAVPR

## O=C(O)C1CN(Cc2ccc(-c3noc(-c4onc(-c5ccccc5)c4C(F)(F)F)n3)cc2)C1
[1]
  bioavailability: 70%
[2]
  Ratio: 37
[3]
  Tmax: 8.9 h
[4]
  AUC: 11 µM·h
[5]
  MRT: 8.9 h
[6]
  Activity: inactive
[7]
  inhibition: Dose-dependent effect
[8]
  inhibition: Dose-dependent effect
[9]
  ED50: 0.02 mg/kg
[10]
  EC50: 0.47 nM
[11]
  EC50: 1600 nM
[12]
  Activity: 78%
[13]
  concentration at 24 h: 700 nM
[14]
  EC50: 0.27 nM
[15]
  Activity: 20%
[16]
  Activity: 40%
[17]
  fraction unbound: 0.001
[18]
  fraction unbound: 0.007
[19]
  Papp A→B: 10.4 ×10⁻⁶ cm/s
[20]
  IC50: > 40000 nM
[21]
  IC50: > 40000 nM
[22]
  IC50: > 40000 nM
[23]
  IC50: > 40000 nM
[24]
  IC50: > 40000 nM
[25]
  concentration at 4 h: 180 nM
[26]
  Activity: 73%
[27]
  Activity: 75%
[28]
  concentration at 24 h: 4 nM
[29]
  half-life: 9.8 h
[30]
  MRT: 14 h
[31]
  CL: 0.3%
[32]
  Tmax: 3.3 h
[33]
  MRT: 14 h
[34]
  Ratio: 6
